The subject of series [1] is Human immunodeficiency virus 1. Kind of series: Antiviral activity against HIV1 3B assessed as inhibition of viral-induced cytopathic effect in human MT4 cells. As to conditions: Human immunodeficiency virus 1, 3B. The series is classed as functional, organism-based. A general note: Damage to the host cells serves as the signal in cytopathic effect assays.
A short description of series [2]: Cytotoxicity against human MT4 cells. In kind it is cell-based.
Series [3] is described as follows: Selectivity index, ratio of CC50 for human MT4 cells to EC50 for HIV1 3B. In kind it is functional.
In series [4] the target is T1, Human immunodeficiency virus type 1 integrase (Human immunodeficiency virus 1, UniProt Q7ZJM1).
T1 sequence (Q7ZJM1 whole entry): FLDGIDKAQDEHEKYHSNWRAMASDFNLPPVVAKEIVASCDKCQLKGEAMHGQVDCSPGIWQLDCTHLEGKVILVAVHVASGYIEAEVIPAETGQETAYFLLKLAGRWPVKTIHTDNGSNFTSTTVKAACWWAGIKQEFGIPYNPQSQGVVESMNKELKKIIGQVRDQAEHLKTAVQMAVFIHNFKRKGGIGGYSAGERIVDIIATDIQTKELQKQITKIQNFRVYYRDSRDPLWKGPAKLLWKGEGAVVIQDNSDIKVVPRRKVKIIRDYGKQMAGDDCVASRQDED
Description: Inhibition of HIV1 integrase strand transfer activity
For series [5], the target named is T1, Human immunodeficiency virus type 1 integrase. The source holds these as a separate data set.
Description: Inhibition of HIV1 integrase

In general, EC50 refers to the concentration at which the effect is half-maximal. As a reminder, the CC50 is the concentration at which the toxic effect on the cells reaches its halfway point. A lower CC50 goes with greater toxicity to the cells. In the case of `COc1cc2c(cc1Cc1cccc(Cl)c1F)c(=O)c(C(=O)O)cn2[C@H](CO)C(C)C`, the concentration for a half-maximal effect (EC50) in series [1] was found to be 0.0008 µM. In series [2], the CC50 stood at 2.12 µM.

The term IC50 denotes the concentration needed to halve the response being measured. The low end stands for higher potency, the high end for lower potency. Regarding `CCOC(=O)/C(O)=C/C(=O)c1cn(Cc2ccc(F)cc2)c2ccc(OC)cc12`, in series [1], the EC50 worked out at 11.5 µM. The “Ratio CC50/EC50” value in series [3] turned out to be 11. Besides, the IC50 is 7550 nM in series [4] and 4600 nM in series [5]. The compound further yielded a CC50 in series [2] of 126 µM.

As to `COc1cccc2c(C(=O)/C=C(\O)C(=O)O)cn(Cc3ccc(F)cc3)c12`, the EC50 in series [1] turned out to be 7.04 µM. Also, the “Ratio CC50/EC50” value in series [3] stood at 12. The IC50 came out at 190 nM in series [4] and 270 nM in series [5]. This compound also came in with a CC50 in series [2] of 82.9 µM.

On to `Cc1nnc(C(=O)NC(C)(C)c2nc(C(=O)NCc3ccc(F)cc3)c(O)c(=O)n2C)o1`, for which the EC50 in series [1] is 0.013 µM. This compound also gave a CC50 in series [2] of more than 18 µM.

Take `CCOC(=O)/C(O)=C/C(=O)c1cn(Cc2ccc(F)cc2)c2cc(OC)ccc12`: the EC50 in series [1] is more than 100 µM. For the same compound, in series [3], the “Ratio CC50/EC50” value was less than 1. Also, the half-maximal inhibitory concentration (IC50) in series [4] came out at 2340 nM; in series [5] it was 1960 nM. In series [2], this compound displayed a CC50 of 100 µM.

`COc1ccc2c(C(=O)/C=C(\O)C(=O)O)cn(Cc3ccc(F)cc3)c2c1`: the EC50 in series [1] was found to be 8.39 µM. Further, the “Ratio CC50/EC50” value in series [3] was 8. Moreover, the IC50 was 220 nM in series [4] and 190 nM in series [5]. Moreover, in series [2], the CC50 was 66 µM.

As for `COc1ccc2c(c1)c(C(=O)/C=C(\O)C(=O)O)cn2Cc1ccc(F)cc1`, in series [1], the EC50 worked out at 5.63 µM. Besides, the “Ratio CC50/EC50” value in series [3] is 12. Moreover, the results for the IC50 in series [4] and in series [5] were 270 nM and 300 nM, respectively. In series [2], this compound had a CC50 of 63.6 µM.

In the case of `COc1cccc2c1c(C(=O)/C=C(\O)C(=O)O)cn2Cc1ccc(F)cc1`, in series [3], the “Ratio CC50/EC50” value is listed as 70. Moreover, the IC50 is 140 nM in series [4] and 80 nM in series [5]. This compound showed a CC50 in series [2] of 41.1 µM.

For the compound `CCOC(=O)/C(O)=C/C(=O)c1cn(Cc2ccc(F)cc2)c2c(OC)ccc(OC)c12`, the EC50 in series [1] turned out to be 4.09 µM. Besides, the “Ratio CC50/EC50” value in series [3] is 20. For the same compound, the IC50 came out at 660 nM in series [4] and 1240 nM in series [5]. Also, in series [2], it took 81.1 µM to reach half-maximal cytotoxicity (CC50).

In the case of `COc1ccc(OC)c2c1c(C(=O)/C=C(\O)C(=O)O)cn2Cc1ccc(F)cc1`, in series [1], the EC50 stood at 2.13 µM. In addition, the “Ratio CC50/EC50” value in series [3] was 100. The IC50 in series [4] was 30 nM; in series [5], 60 nM. The same compound had a CC50 in series [2] of 213 µM.

Consider `CCOC(=O)/C(O)=C/C(=O)c1cn(Cc2ccc(F)cc2)c2c(OC)cccc12`, for which the EC50 in series [1] is more than 100 µM. In addition, the IC50 in series [4] came out at 2640 nM; in series [5], 4760 nM. Further, the CC50 in series [2] was more than 100 µM.

As for `O=C(O)/C(O)=C/C(=O)c1cn(Cc2ccc(F)cc2)c2ccccc12`, in series [1], the EC50 turned out to be 8.35 µM. The “Ratio CC50/EC50” value in series [3] is 8. Moreover, the IC50 came to 2330 nM in series [4] and 860 nM in series [5]. In series [2], this compound yielded a CC50 of 64.1 µM.

Regarding `CCOC(=O)/C(O)=C/C(=O)c1cn(Cc2ccc(F)cc2)c2cccc(OC)c12`, the EC50 in series [1] worked out at 3.17 µM. Besides, the “Ratio CC50/EC50” value in series [3] is listed as 24. Further, the IC50 in series [4] is 92300 nM; in series [5] it was 86100 nM. The compound further registered a CC50 in series [2] of 74 µM.
